The source of these data is patent publication EP0200024B1, “3-Cyano-pyridines, process for their preparation and their pharmaceutical use” (ARZNEIMITTELWERK DRESDEN GmbH, priority 1985, dated 1986).

Test [1] deals with Narkotisierter Hund. Put plainly: Anaesthetised dog i.v. (left ventricular pressure dp/dtmax, arterial pressure). Format: in vivo, Bastardhunden. The settings on record: for Steigerungen des Kontraktilitätsparameters dp/dtmax: result in words; for ED10 / ED50: Canis lupus familiaris, iv; for ED10: read-out: 10%ige Senkung des diastolischen Blutdruckes bei einer Dosis von; for ED50: read-out: 50%ige Steigerung des Kontraktilitätsparameters dp/dtmax bei einer Dosis von. The source says: Die Untersuchungen wurden an Bastardhunden in Chloralose-Urethan-Narkose bei Prämedikation mit Morphinhydrochlorid unter spontaner Atmung durchgeführt. . Der linksventrikuläre Druck wurde mittels Tipmanometer und der arterielle Druck wurde über Herzkatheter via A. brachialis gemessen [vgl. K. Femmer et al., Pharmazie 30 642 (1975)]. Unter dem Einfluß der 3-Cyan-2-(heteroalkyl-1-hetero)-pyridine der Formel I wurden eine dosisabhängige beträchtliche. Steigerung der Kontraktionskraft des Herzens sowie teilweise eine signifikante Senkung des peripheren Gesamtwiderstandes beobachtet. So zeigen beispielsweise die Verbindungen von Beispiel 3.2, 4.1, 4.3 und 4.5 eine 50%ige Steigerung des Kontraktilitätsparameters dp/dtmax bei einer Dosis von 6,1 · 10⁻⁶, 1,4 · 10⁻⁶, 2,5 · 10⁻⁶ bzw. 2.0 · 10⁻⁶ mol/kg sowie eine 10%ige Senkung des diastolischen Blutdruckes als relevantes Maß einer Abnahme des peripheren Gesamtwiderstandes bei einer Dosis von 2,1 · 10⁻⁶, 1,6 · 10⁻⁶,1,6 · 10⁻⁶ bzw. 1,2 · 10⁻⁶ mol/kg. Die Verbindung von Beispiel 2.1 zeigt bei einer Dosis von 5 mg/kg eine Steigerung von dp/dtmax um 126 % Für die Verbindung von Beispiel 2.1 wurde bei einer Dosis von 5 mg/kg eine Senkung des diastolischen Blutdruckes um 37 % gefunden.

Test [2] relates to Meerschweinchen. The experiment in a line: Inhalative histamine bronchospasm, oral administration. The settings on record: Cavia porcellus, 1 h, 60 min before inhaled 0,1 % histamine, 10 animals per dose, read-out: ED₅₀-Werte (Schutz vor Histamin-Bronchialkonstriktionen). In kind it is in vivo. As to the method:
Eine, in einem Ultraschallverdampfer vernebelte 0,1 %ige Histaminlösung induziert an männlichen Meerschweinchen (Körpermasse 200-300 g) innerhalb von 2 bis 3 Min. typische Bronchialkonstriktionen. Durch orale Verabreichung geeigneter Dosen der 3-Cyan-2-(heteroalkyl-1-hetero)-pyridine der Formel I 60 Min. vor der inhalativen Histamingabe wurden die Tiere innerhalb einer festgelegten Expositionszeit vor den durch Histamin verursachten Bronchialkonstriktionen geschützt. Für die Derivate von Beispiel 1.2, 1.6, 1.7 und 1.8 ergeben sich z.B. aus je 10 Tieren pro Dosis ED₅₀-Werte von 4,3 · 10⁻⁴, 6,0 · 10⁻⁴, 3,3 · 10⁻⁴ sowie 2,5 · 10⁻⁴ mol/kg, was auf deutliche bronchodilatatorische bzw. antiallergische Wirkungen hinweist.

Test [3] has as its system Samenleiter von Meerschweinchen. The experiment in a line: Noradrenaline antagonism in vitro (noradrenaline contraction of isolated vas deferens). Conditions: Cavia porcellus; compound given 1 min before submaximal noradrenaline concentration; read-out: ED₅₀-Werte (Hemmung der Noradrenalinkontraktion). As to the method: Die in Warmblüterphosphattyrode präparierten Samenleiter von Meerschweinchen (ca. 400 g Körpermasse) wurden 60 Min. im Organbad adaptiert. Anschließend wurden die Kontraktionen unter Gabe von Noradrenalin isotonisch registriert. Die 3-Cyan-2-(heteroalkyl-1-hetero)-pyridine der Formel I wurden 1 Min vor den jeweils submaximal reagierenden Noradrenalinkonzentrationen in das Organbad appliziert. […] Für die Verbindungen von Beispiel 1.2, 1.6, 1.7 und 1.8 ergaben sich beispielsweise ED₅₀-Werte von 2,2 · 10⁻⁵, 1,6 · 10⁻⁴, 2,5 · 10⁻⁴ sowie 1,3 · 10⁻⁴ mol/l.

Test [4] relates to Langendorff-Herz. Put plainly: Langendorff heart in vitro (isolated perfused, freely beating heart; inotropy, chronotropy, coronary flow). The arrangement: species or system Meerschweinchen; activation: dose or concentration left out as unconfirmed. Conditions: for activation at 10000 µM / activation: 0,1 ml of a 10⁻² molar stock solution into the aorta; for activation at 10000 µM: read-out: Erhöhung der Inotropie; for activation: read-out: Erhöhung des Koronardurchflusses. Here is the method: Für die Versuche wurden männliche Meerschweinchen mit einer, Körpermasse von 300-350 g eingesetzt. An isolierten, mit carbogenbegaster Tyrodelösung von 37 °C durchströmten, frei schlagenden Herzen, wurden unter konstantem Druck die Kontraktionskraft (Inotropie), die Frequenz (Chronotropie) und der Koronardurchfluß unter dem Einfluß der 3-Cyan-2-(heteroalkyl-1-hetero)-5-(pyrid-4-yl)-pyridine der Formel I untersucht. Dazu wurden jeweils 0,1 ml der entsprechend molaren Substanzlösungen als Bolus direkt in den Aortenstumpf appliziert. Die 3-Cyan-2-(heteraalkyl-1-hetera)-5-(pyrid-4-yl)-pyridine zeigten eine teilweise starke und konzentrationsabhängige positiv inotrope und koronardilatatorische Wirkung. Die positiv chronotrope Wirkung war deutlich geringer, ausgeprägt. Beispielsweise zeigen die Verbindungen der Beispiele 1.2, 1.6, 1.7 und 1.8 eine Erhöhung der Inotropie um 30 % bei Applikation von je 0,1 ml einer 3,0 · 10⁻³, 2,2 · 10⁻², 2,0 · 10⁻⁴ bzw. 1,0 · 10⁻³ molaren Lösung und eine Erhöhung des Koronardurchflusses um 100 % bei Applikation von je 0,1 ml einer 6,0 · 10⁻³, 6,5 · 10⁻², 1,1 · 10⁻² bzw. 1,3 · 10⁻² molaren Lösung. Die Verbindungen der Beispiele 2.2, 2.3 und 2.4 weisen bei Applikation von je 0,1 ml einer 10⁻² molaren Stammlösung in die Aorta eine Erhöhung der Inotropie um 51 %, 38 % und 31 % sowie eine Erhöhung des Koronardurchflusses um 59 %, 99 % bzw. 88 % auf.

Test [5] deals with Isolierter, spontanaktiver Vorhof des Meerschweinchens. The experiment in a line: Isolated, spontaneously active atrium (inotropy and frequency). Details: species or system Meerschweinchen. Conditions: for EC30: Tyrode solution according to A.A. Alousi et al., 32 °C, read-out: 30%ige Steigerung der Inotropie bei Konzentrationen von; for chronotrope Wirkung / positiv inotrope Wirkung: result in words. Here is the method:
Für die Versuche wurden männliche Meerschweinchen mit einer Körpermasse von 400-500 g verwendet. Am isolierten, spontanaktiven Vorhof erfolgte nach einer 60 Min. währenden Adaptationszeit der Organpräparate in 32 °C temperierter carbogen-durchperlter Tyrodelösung die Untersuchung der Beeinflussung von Inotropie und Frequenz unter Einwirkung der 3-Cyan-2-(heteroalkyl-1-hetero)-pyridine der Formel I. Eine Reihe von Verbindungen zeigte eine starke und dosisabhängige positiv inotrope Wirkung. Bei Verwendung einer Tyrodelösung nach A.A. Alousi et al. [Circ. Res. 45, 666 (1979)] zeigen beispielsweise die Verbindungen von Beispiel 1.2, 1.7, 1.27, 3.3, 3.4, 3.5, 4.1 bzw. 4.3 eine 30%ige Steigerung der Inotropie bei Konzentrationen von 5,6 · 10⁻⁵, 5,4 · 10⁻⁶, 5,0 · 10⁻⁵, 5,8 · 10⁻⁵, 9,1 · 10⁻⁵, 1,6 · 10⁻⁴, 3,5 · 10⁻⁵ und 5,4 · 10⁻⁵ mol/l. Die Verbindung von Beispiel 1.27 zeigt bei einer Konzentration von 5 · 10⁻⁵ mol/l eine Abnahme der Frequenz um 15 %. Die Verbindung von Beispiel 1.8 zeigt bei Verwendung einer Tyrodelösung mit der Zusammensetzung (mmol/l): NaCl 136,9; KCl 2,7; CaCl₂ 1,8; MgCl₂ 1,0; NaHCO₃ 11,9; NaH₂PO₄ 0,4; Glucose 16,5 eine 30%ige Steigerung der Inotropie bei einer Konzentration von 1,2 · 10⁻⁴ mol/l.

Molecules are shown by their SMILES.

On to `COc1ccc(-c2cc(C#N)c(N3CCOCC3)nc2C)cc1OC` [3-Cyan-5-(3,4-dimethoxy-phenyl)-6-methyl-2-morpholino-pyridin], for which the “Steigerungen des Kontraktilitätsparameters dp/dtmax” value in test [1] is listed as “dosisabhängige beträchtliche Steigerungen”.

In the case of `Cc1nc(N2CCOCC2)c(C#N)cc1-c1ccccc1` [3-Cyan-6-methyl-2-morpholino-5-phenyl-pyridin], the “Steigerungen des Kontraktilitätsparameters dp/dtmax” value in test [1] is recorded as “dosisabhängige beträchtliche Steigerungen”.

On to `N#Cc1cc(-c2ccncc2)cnc1N(CCO)CCO` [Beispiel 1.6, 2-[Bis-(2-hydroxy-ethyl)-amino]-3-cyan-5-(pyrid-4-yl)-pyridin], for which, in test [2], the ED50 came to 600 µmol/kg. In addition, the IC50 in test [3] amounted to 160 µM. The EC30 in test [4] (molarity of solution, 0,1 ml bolus into aortic stump, giving 30 % increase of inotropy, read-out: Erhöhung der Inotropie um 30 % bei Applikation von je 0,1 ml einer ... molaren Lösung) worked out at 22000 µM. The EC100 in test [4] (molarity of solution, 0,1 ml bolus, giving 100 % increase of coronary flow, read-out: Erhöhung des Koronardurchflusses um 100 % bei Applikation von je 0,1 ml einer ... molaren Lösung) was 65000 µM.

In the case of `N#Cc1cc(-c2ccncc2)cnc1N1CCN(C(=O)c2ccco2)CC1` [Beispiel 1.27, 3-Cyan-2-[4-(furan-2-yl-carbonyl)-piperazino]-5-(pyrid-4-yl)-pyridin], the inhibition at 50 µM in test [5] (Cavia porcellus, at a concentration of 5 · 10⁻⁵ mol/l, read-out: Abnahme der Frequenz) came to 15%. Further, in test [5], the EC30 turned out to be 50 µM, the “chronotrope Wirkung” value was “negativ chronotroper Wirkung” and the “positiv inotrope Wirkung” value is “gute positiv inotrope Wirkung”.

Take `COCCOc1ncc(-c2ccncc2)cc1C#N` [Beispiel 2.1, 3-Cyan-2-(2-methoxy-ethoxy)-5-(pyrid-4-yl)-pyridin]: in test [1] (dose 5 mg/kg), the “Senkung des diastolischen Blutdruckes” value is 37% and the Steigerung von dp/dtmax was determined as 126%.

For `N#Cc1cc(-c2ccncc2)cnc1OCCO` [Beispiel 2.2, 3-Cyan-2-(2-hydroxy-ethoxy-)-5-(pyrid-4-yl)-pyridin], in test [5], the “chronotrope Wirkung” value is recorded as “relative geringer positiv chronotroper Aktivität” and the “positiv inotrope Wirkung” value is “ausgeprägte und dosisabhängige positiv inotrope Wirkung”. For the same compound, in test [4], the activation at 10000 µM was found to be 51% and the activation turned out to be 59%. In test [4] (result in words), the “positiv chronotrope Wirkung” value is given as “relative geringer positiv chronotroper Aktivität” and the “positiv inotrope Wirkung” value is reported as “ausgeprägte und dosisabhängige positiv inotrope Wirkung”.

Turning to `N#Cc1cc(-c2ccncc2)cnc1OCCCO` [Beispiel 2.3, 3-Cyan-2-(3-hydroxy-propoxy)-5-(pyrid-4-yl)-pyridin], in test [4], the activation at 10000 µM came to 38% and the activation was found to be 99%.

For `CC(O)COc1ncc(-c2ccncc2)cc1C#N` (stereo not shown) [Beispiel 2.4, 3-Cyan-2-(2-hydroxy-propoxy)-5-(pyrid-4-yl)-pyridin], in test [4], the activation at 10000 µM was determined as 31% and the activation came to 88%.

With `Cc1nc(N2CCOCC2)c(C#N)cc1-c1ccncc1` [Beispiel 3.2, 3-Cyan-6-methyl-2-morpholino-5-(pyrid-4-yl)-pyridin], in test [1], the ED10 was 2.1 µmol/kg, the ED50 is 6.1 µmol/kg and the “Steigerungen des Kontraktilitätsparameters dp/dtmax” value is recorded as “dosisabhängige beträchtliche Steigerungen”.

For `Cc1nc(NCCO)c(C#N)cc1-c1ccncc1` [Beispiel 3.3, 3-Cyan-2-(2-hydroxy-ethylamino)-6-methyl-5-(pyrid-4-yl)-pyridin], in test [5], the EC30 was determined as 58 µM and the “positiv inotrope Wirkung” value is “gute und dosisabhängige positiv inotrope Wirkung”.

Consider `Cc1nc(NCCCO)c(C#N)cc1-c1ccncc1` [Beispiel 3.4, 3-Cyan-2-(3-hydroxy-propylamino)-6-methyl-5-(pyrid-4-yl)-pyridin], for which, in test [5], the EC30 came out at 91 µM and the “positiv inotrope Wirkung” value is reported as “gute und dosisabhängige positiv inotrope Wirkung”.

As for `Cc1nc(NCC(C)O)c(C#N)cc1-c1ccncc1` (stereo not shown) [Beispiel 3.5, 3-Cyan-2-(2-hydroxy-propylamino)-6-methyl-5-(pyrid-4-yl)-pyridin], the EC30 in test [5] is 160 µM.

Turning to `CC(=O)OCCNc1ncc(-c2ccncc2)cc1C#N` [Beispiel 4.1, 2-(2-Acetoxy-ethylamino)-3-cyan-5-(pyrid-4-yl)-pyridin], in test [5], the EC30 came out at 35 µM and the “positiv inotrope Wirkung” value is on record as “gute und dosisabhängige positiv inotrope Wirkung”. Besides, in test [1], the ED10 stood at 1.6 µmol/kg, the ED50 was found to be 1.4 µmol/kg and the “Steigerungen des Kontraktilitätsparameters dp/dtmax” value is reported as “dosisabhängige beträchtliche Steigerungen”.

As to `CC(=O)OCCOc1ncc(-c2ccncc2)cc1C#N` [Beispiel 4.3, 2-(2-Acetoxy-ethoxy)-3-cyan-5-(pyrid-4-yl)-pyridin], in test [5], the EC30 came to 54 µM and the “positiv inotrope Wirkung” value was “gute und dosisabhängige positiv inotrope Wirkung”. In test [1], the ED10 is 1.6 µmol/kg, the ED50 was 2.5 µmol/kg and the “Steigerungen des Kontraktilitätsparameters dp/dtmax” value is recorded as “dosisabhängige beträchtliche Steigerungen”.

Take `CCC(=O)OCCNc1ncc(-c2ccncc2)cc1C#N` [Beispiel 4.5, 3-Cyan-2-(2-propionyloxy-ethylamino)-5-(pyrid-4-yl)-pyridin]: in test [1], the ED10 was determined as 1.2 µmol/kg, the ED50 was 2 µmol/kg and the “Steigerungen des Kontraktilitätsparameters dp/dtmax” value is reported as “dosisabhängige beträchtliche Steigerungen”.
